Legend:
[1] = molecular target: T1, medaka Esr1 (mEsr1) (Oryzias latipes, UniProt P50241); experiment: cell-based; parameters: species or system Japanese medaka (Oryzias latipes)
T1 sequence (P50241 1-620): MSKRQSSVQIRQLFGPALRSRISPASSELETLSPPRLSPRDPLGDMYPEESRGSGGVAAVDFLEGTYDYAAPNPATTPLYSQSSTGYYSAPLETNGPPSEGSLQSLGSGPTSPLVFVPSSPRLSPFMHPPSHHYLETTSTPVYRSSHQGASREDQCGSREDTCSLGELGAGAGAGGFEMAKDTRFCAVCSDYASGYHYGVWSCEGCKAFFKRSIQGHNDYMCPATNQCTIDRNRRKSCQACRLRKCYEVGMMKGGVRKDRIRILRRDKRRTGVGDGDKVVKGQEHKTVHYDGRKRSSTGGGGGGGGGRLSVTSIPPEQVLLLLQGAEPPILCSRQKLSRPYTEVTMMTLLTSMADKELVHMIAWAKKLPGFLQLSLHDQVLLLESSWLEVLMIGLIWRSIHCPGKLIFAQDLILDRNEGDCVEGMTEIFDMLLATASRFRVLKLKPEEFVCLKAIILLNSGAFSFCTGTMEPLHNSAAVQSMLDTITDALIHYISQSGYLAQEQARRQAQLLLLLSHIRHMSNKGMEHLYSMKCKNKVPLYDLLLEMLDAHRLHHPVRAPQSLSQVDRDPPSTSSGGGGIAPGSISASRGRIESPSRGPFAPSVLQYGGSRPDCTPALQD

[2] = molecular target: T1, medaka Esr1 (mEsr1); experiment: Medaka Esr1 reporter gene assay, antagonist assay; format: cell-based, Japanese medaka (Oryzias latipes); details: E2 spiked at 0.2 nM (A); MAC = 1.0 × 10^−5 M
[3] = molecular target: T2, medaka ARβ (mArβ) (Oryzias latipes, UniProt D1MV73); experiment: Medaka ARβ reporter gene assay, agonist assay; format: cell-based, Japanese medaka (Oryzias latipes); details: MAC = 1.0 × 10^−5 M
T2 sequence (D1MV73 1-744): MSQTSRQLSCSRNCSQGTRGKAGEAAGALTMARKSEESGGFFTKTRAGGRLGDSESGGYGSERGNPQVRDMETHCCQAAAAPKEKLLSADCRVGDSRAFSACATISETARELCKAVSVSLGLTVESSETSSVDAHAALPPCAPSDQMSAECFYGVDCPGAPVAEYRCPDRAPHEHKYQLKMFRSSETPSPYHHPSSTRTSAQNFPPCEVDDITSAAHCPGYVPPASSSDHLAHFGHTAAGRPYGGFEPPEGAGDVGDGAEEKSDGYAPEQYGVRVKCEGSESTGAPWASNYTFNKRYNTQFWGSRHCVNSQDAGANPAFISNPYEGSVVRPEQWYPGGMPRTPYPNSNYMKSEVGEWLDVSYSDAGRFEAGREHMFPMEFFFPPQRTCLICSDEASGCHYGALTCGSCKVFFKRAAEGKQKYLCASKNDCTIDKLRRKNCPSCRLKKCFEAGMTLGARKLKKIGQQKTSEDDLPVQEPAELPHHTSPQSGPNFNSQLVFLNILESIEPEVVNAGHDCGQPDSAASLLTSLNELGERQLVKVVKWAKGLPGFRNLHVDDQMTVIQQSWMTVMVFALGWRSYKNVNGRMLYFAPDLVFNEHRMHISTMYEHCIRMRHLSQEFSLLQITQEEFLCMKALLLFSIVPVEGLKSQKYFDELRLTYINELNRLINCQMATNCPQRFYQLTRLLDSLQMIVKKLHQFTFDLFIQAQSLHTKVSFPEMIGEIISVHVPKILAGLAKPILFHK

[4] = molecular target: T2, medaka ARβ (mArβ); experiment: Medaka ARβ reporter gene assay, antagonist assay; format: cell-based, Japanese medaka (Oryzias latipes); details: 11‐KT spiked at 10 nM (C); MAC = 1.0 × 10^−5 M
[5] = tested on: Japanese medaka (Oryzias latipes); experiment: Fish Short‐Term Reproduction Assay; format: in vivo; details: for GSI Female / GSI Male / HSI Female / HSI Male / Length Female / Length Male / Weight Female / Weight Male: completion of exposure
[6] = tested on: Japanese medaka; details: ref Flynn et al. (2018); cited from earlier work
[7] = 598 μg/L measured, 21 d, sig. ↑ vs control
[8] = 952 μg/L measured, 21 d, sig. ↑ vs control
[9] = measured concentration 196 μg/L
[10] = measured concentration 598 μg/L
[11] = measured concentration 952 μg/L

With `CCOP(=S)(OCC)Oc1cc(C)nc(C(C)C)n1` [DZ, Diazinon] the “Agonistic activity PC10” value [1] was “PC10 = 1.0 × 10^−5 M”, the “In vitro positive: Esr” value ([1]; mode of action in which EC50 or PC10 was obtained in RGA) was “Esr” and the Antagonistic activity [2] was “NE (MAC = 1.0 × 10^−5 M)^(A)”. The Agonistic activity [3] was “NE (MAC = 1.0 × 10^−5 M)”, the Antagonistic activity [4] was “NE (MAC = 1.0 × 10^−5 M)^(C)” and the “Individuals with symptoms of presumed paralysis of motor function” value ([5]; 38 μg/L) was 12.5%. The Fertility rate ([5]; 38 μg/L measured, 21 d) was 96 ± 0.8%, the “Hepatic VTG, female” value ([5]; 38 μg/L measured, 21 d) was 2,665 ± 1942 ng/mg‐liver and the “Hepatic VTG, male” value ([5]; 38 μg/L measured, 21 d) was 0.13 ± 0.16 ng/mg‐liver. The Mortality ([5]; 38 μg/L measured, 21 d) was 4.2%, the “Mortality, number of dead fish” value ([5]; 38 μg/L measured, 21 d) was 1 and the “Number of fertilized eggs (per female per day)” value ([5]; 38 μg/L measured, 21 d) was 18 ± 0.7. The “Number of total eggs (per female per day)” value ([5]; 38 μg/L measured, 21 d) was 19 ± 0.6, the “SSC female (joint plates with papillary processes)” value (“SSC female” for short) ([5]; 38 μg/L measured, 21 d) was 0 ± 0 and the “SSC male (joint plates with papillary processes)” value (from here on “SSC male”) ([5]; 38 μg/L measured, 21 d) was 82 ± 16. The “Fish with symptoms of presumed paralysis of motor function (in words)” value ([5]; 196 μg/L level and above) was “all fish”, the “Hepatic VTG, female” value ([5]; 196 μg/L measured, 21 d) was 1722 ± 1,394 ng/mg‐liver and the “Hepatic VTG, male” value ([5]; 196 μg/L measured, 21 d) was 0.08 ± 0.14 ng/mg‐liver. For the same compound, the Mortality ([5]; 196 μg/L measured, 21 d) was 4.2%, the “Mortality, number of dead fish” value ([5]; 196 μg/L measured, 21 d) was 1 and the “SSC female” value ([5]; 196 μg/L measured, 21 d) was 0 ± 0. For the same compound, the “SSC male” value ([5]; 196 μg/L measured, 21 d) was 84 ± 19, the Fertility rate ([5]; 196 μg/L measured, 21 d, sig. ↓ vs control) was 12 ± 6.3% and the “Hepatic VTG, female” value ([5]; 598 μg/L measured, 21 d) was 661 ± 552 ng/mg‐liver. The “Hepatic VTG, male” value ([5]; 598 μg/L measured, 21 d) was 0.06 ± 0.04 ng/mg‐liver, the “SSC female” value ([5]; 598 μg/L measured, 21 d) was 0 ± 0 and the “SSC male” value ([5]; 598 μg/L measured, 21 d) was 89 ± 17. For the same compound, the Mortality [5, 7] was 42%, the “Mortality, number of dead fish” value [5, 7] was 10 and the Fertility rate ([5]; 598 μg/L measured, 21 d, sig. ↓ vs control) was 55 ± 6.7%. For the same compound, the “Hepatic VTG, female” value ([5]; 952 μg/L measured, 21 d) was 1,621 ± 1,314 ng/mg‐liver, the “Hepatic VTG, male” value ([5]; 952 μg/L measured, 21 d) was 0.89 ± 1.67 ng/mg‐liver and the “SSC female” value ([5]; 952 μg/L measured, 21 d) was 0 ± 0. The “SSC male” value ([5]; 952 μg/L measured, 21 d) was 89 ± 15, the Mortality [5, 8] was 58% and the “Mortality, number of dead fish” value [5, 8] was 14. The “Fecundity, number of total eggs (in words)” value ([5]; 21 d) was “statistically significant decrease”, the LOECmVTG ([5]; LOEC on VTG induction in males) was “ND (>952) μg/L” and the LOECREPRO ([5]; LOEC on reproduction (fecundity and/or fertility)) was 196 µg/L. For the same compound, the LOECTOX ([5]; lowest observed effect concentration on mortality) was 196 µg/L, the “GSI Female” value ([5]; measured concentration 38 μg/L) was 12.3 ± 1.3% and the “GSI Male” value ([5]; measured concentration 38 μg/L) was 0.9 ± 0.4%. The “HSI Female” value ([5]; measured concentration 38 μg/L) was 5.3 ± 1.20%, the “HSI Male” value ([5]; measured concentration 38 μg/L) was 2.8 ± 1.70% and the “Length Female” value ([5]; measured concentration 38 μg/L) was 30.7 ± 1.0 mm. For the same compound, the “Length Male” value ([5]; measured concentration 38 μg/L) was 30.1 ± 0.6 mm, the “Weight Female” value ([5]; measured concentration 38 μg/L) was 338 ± 36 mg and the “Weight Male” value ([5]; measured concentration 38 μg/L) was 294 ± 21 mg. The “GSI Female” value [5, 9] was 6.8 ± 3.5%, the “GSI Male” value [5, 9] was 0.6 ± 0.2% and the “HSI Female” value [5, 9] was 2.0 ± 0.70%. For the same compound, the “HSI Male” value [5, 9] was 1.6 ± 0.60%, the “Length Female” value [5, 9] was 28.5 ± 1.1 mm and the “Length Male” value [5, 9] was 28.5 ± 0.6 mm. The “Weight Female” value [5, 9] was 217 ± 19 mg, the “Weight Male” value [5, 9] was 200 ± 14 mg and the “GSI Female” value [5, 10] was 3.3 ± 0.7%. The “GSI Male” value [5, 10] was 0.4 ± 0.1%, the “HSI Female” value [5, 10] was 1.9 ± 0.30% and the “HSI Male” value [5, 10] was 1.2 ± 0.40%. The “Length Female” value [5, 10] was 28.7 ± 0.0 mm, the “Length Male” value [5, 10] was 29.6 ± 0.2 mm and the “Weight Female” value [5, 10] was 203 ± 47 mg. For the same compound, the “Weight Male” value [5, 10] was 190 ± 13 mg, the “GSI Female” value [5, 11] was 6.9 ± 2.4% and the “GSI Male” value [5, 11] was 0.5 ± 0.1%. For the same compound, the “HSI Female” value [5, 11] was 1.6 ± 0.50%, the “HSI Male” value [5, 11] was 1.5 ± 0.60% and the “Length Female” value [5, 11] was 27.5 ± 0.8 mm. The “Length Male” value [5, 11] was 28.3 ± 1.2 mm, the “Weight Female” value [5, 11] was 203 ± 26 mg and the “Weight Male” value [5, 11] was 183 ± 20 mg. The LOEC on fecundity [6] was 2.9 µg/L and the LOEC on growth [6] was 5.2 µg/L.
